From patent publication US10457654B2 (GENENTECH, INC., priority 2017, dated 2019)
pIC50: −log10 of the molar value. Counter-ions that a name gives are not always drawn.

Assays:
hNav1.7 [1] = target: T1, hNav1.7 (Homo sapiens (Human), UniProt Q15858); experiment: Tritiated compound binding to membranes from cells expressing hNav1.7 and the β1 subunit, modified protocol (LBA, Ex. 243B); conditions: 300 pM [3H]compound, room temperature, read-out: Nav1.7 LBA (Ex. 243B) IC50
Target sequence in this assay (Q15858 whole entry, looked up): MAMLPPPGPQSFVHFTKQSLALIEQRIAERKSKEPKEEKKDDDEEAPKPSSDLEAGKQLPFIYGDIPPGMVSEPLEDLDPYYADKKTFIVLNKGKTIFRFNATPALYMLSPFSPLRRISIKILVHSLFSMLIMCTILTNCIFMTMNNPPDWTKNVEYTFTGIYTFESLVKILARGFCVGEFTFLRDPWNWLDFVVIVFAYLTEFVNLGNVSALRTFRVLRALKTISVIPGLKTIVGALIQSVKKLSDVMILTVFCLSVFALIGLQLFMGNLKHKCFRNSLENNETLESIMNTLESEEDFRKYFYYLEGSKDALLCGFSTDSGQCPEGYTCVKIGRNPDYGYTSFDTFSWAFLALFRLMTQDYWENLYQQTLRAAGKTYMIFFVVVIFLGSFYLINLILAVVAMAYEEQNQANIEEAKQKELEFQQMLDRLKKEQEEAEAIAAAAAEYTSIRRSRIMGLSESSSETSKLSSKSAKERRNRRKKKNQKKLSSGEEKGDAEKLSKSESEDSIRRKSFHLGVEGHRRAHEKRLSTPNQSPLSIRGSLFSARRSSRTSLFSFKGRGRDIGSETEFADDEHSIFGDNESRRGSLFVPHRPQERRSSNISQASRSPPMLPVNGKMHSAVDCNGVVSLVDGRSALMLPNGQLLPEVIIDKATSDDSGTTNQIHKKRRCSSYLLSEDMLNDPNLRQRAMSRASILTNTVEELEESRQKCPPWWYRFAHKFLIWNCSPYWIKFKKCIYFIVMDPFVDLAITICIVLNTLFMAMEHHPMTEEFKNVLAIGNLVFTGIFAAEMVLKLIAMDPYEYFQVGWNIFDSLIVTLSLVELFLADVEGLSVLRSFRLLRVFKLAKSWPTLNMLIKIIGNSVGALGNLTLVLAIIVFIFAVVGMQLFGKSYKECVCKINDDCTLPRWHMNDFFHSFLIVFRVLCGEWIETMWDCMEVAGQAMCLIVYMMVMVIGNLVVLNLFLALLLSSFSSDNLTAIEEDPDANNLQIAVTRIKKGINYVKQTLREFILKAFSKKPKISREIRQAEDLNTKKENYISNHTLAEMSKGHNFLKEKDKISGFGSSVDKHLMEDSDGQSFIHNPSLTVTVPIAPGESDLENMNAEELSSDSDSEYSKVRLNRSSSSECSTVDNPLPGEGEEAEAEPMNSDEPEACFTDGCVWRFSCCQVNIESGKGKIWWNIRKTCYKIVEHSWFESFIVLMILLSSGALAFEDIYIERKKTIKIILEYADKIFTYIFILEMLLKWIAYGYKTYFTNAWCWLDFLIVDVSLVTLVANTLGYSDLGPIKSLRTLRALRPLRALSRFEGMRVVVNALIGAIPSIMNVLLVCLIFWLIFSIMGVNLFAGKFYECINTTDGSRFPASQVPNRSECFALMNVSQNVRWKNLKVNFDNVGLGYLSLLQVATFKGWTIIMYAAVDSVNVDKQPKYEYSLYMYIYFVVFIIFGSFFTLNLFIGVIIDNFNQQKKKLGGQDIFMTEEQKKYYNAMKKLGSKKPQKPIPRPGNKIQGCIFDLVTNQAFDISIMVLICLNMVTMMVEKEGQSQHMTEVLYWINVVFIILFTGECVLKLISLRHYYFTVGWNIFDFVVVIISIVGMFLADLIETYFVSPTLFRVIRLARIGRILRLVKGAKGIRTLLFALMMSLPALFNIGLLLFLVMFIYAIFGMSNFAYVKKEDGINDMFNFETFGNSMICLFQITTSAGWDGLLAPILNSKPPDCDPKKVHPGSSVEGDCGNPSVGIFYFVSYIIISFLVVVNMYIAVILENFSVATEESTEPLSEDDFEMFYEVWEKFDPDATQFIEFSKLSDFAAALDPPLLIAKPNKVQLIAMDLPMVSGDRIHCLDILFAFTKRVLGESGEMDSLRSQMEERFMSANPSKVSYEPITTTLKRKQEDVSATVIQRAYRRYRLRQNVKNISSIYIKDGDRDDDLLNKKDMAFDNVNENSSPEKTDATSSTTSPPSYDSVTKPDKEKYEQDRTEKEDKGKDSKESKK
Target sequence in this assay (Q07699 whole entry partner, looked up): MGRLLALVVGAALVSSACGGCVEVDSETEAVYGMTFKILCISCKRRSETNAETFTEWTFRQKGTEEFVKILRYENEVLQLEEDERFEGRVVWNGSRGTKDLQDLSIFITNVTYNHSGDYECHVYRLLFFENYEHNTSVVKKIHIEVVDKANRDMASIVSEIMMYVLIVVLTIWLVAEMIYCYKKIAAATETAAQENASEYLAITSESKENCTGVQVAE

hNav1.7 [2] = target: T1, hNav1.7; experiment: Patch voltage clamp electrophysiology assay (EP), Syncropatch 384PE, CHO cells expressing Nav1.7; format: cell-based; conditions: holding potential -50 mV; […] compound incubation; read-out: EP_SP hNav1.7 (Ex. 243B) IC50
Method: Electrophysiological Assay (EP) (In Vitro Assay)
The following voltage clamp electrophysiology studies were performed on representative compounds using cells heterologously expressing Nav1.7 or Nav1.5 channels. cDNAs for Nav1.7 (NM_002977) and Nav1.5 (AC137587) were stably expressed in Chinese Hamstr Ovary (CHO) cells and CHL (Chinese Hamster Lung) cells respectively. […] Internal solution consists of (in mM): 110 […], 10 […], 20 EGTA, and 10 Hepes (pH adjusted to 7.2); and external solution contains (in mM): 60 NMDG, 80 NaCl, 4 KCl, 1 MgCl2, 2 CaCl2, 2 D-Glucose monohydrate, 10 Hepes (pH adjusted to 7.4 with NaOH).
The chip is moved into the measuring head and the instrument primes the chip with external and internal solutions. […] cells are added to the chip from a cell hotel, and a negative pressure of −50 mBar is applied to form a seal. Following treatment with seal enhancer solution and wash-off with external solution, negative pressure of −250 mbar is applied for 1 second to achieve the whole-cell configuration, followed by three washing steps in external solution. 20 μl of compounds is added to 40 μl in each well (1:3 dilution of compounds), and after mixing, 20 μl is removed so the volume is retained at 40 μl.
For voltage protocol, an holding potential of −50 mV is applied during the whole experiment. A depolarizing step is applied to −10 mV for 10 ms, followed by a hyperpolarization step to −150 mV for 20 ms to allow channel recovery from inactivation. A second depolarizing step is applied from −150 mV to −10 mV for 10 ms, where currents were measured to derive blocking effects of compounds. Inhibition is determined based on 7.5 min of compound incubation.
Target sequence in this assay (Q15858 other isoform, or with tags, fused parts or gaps): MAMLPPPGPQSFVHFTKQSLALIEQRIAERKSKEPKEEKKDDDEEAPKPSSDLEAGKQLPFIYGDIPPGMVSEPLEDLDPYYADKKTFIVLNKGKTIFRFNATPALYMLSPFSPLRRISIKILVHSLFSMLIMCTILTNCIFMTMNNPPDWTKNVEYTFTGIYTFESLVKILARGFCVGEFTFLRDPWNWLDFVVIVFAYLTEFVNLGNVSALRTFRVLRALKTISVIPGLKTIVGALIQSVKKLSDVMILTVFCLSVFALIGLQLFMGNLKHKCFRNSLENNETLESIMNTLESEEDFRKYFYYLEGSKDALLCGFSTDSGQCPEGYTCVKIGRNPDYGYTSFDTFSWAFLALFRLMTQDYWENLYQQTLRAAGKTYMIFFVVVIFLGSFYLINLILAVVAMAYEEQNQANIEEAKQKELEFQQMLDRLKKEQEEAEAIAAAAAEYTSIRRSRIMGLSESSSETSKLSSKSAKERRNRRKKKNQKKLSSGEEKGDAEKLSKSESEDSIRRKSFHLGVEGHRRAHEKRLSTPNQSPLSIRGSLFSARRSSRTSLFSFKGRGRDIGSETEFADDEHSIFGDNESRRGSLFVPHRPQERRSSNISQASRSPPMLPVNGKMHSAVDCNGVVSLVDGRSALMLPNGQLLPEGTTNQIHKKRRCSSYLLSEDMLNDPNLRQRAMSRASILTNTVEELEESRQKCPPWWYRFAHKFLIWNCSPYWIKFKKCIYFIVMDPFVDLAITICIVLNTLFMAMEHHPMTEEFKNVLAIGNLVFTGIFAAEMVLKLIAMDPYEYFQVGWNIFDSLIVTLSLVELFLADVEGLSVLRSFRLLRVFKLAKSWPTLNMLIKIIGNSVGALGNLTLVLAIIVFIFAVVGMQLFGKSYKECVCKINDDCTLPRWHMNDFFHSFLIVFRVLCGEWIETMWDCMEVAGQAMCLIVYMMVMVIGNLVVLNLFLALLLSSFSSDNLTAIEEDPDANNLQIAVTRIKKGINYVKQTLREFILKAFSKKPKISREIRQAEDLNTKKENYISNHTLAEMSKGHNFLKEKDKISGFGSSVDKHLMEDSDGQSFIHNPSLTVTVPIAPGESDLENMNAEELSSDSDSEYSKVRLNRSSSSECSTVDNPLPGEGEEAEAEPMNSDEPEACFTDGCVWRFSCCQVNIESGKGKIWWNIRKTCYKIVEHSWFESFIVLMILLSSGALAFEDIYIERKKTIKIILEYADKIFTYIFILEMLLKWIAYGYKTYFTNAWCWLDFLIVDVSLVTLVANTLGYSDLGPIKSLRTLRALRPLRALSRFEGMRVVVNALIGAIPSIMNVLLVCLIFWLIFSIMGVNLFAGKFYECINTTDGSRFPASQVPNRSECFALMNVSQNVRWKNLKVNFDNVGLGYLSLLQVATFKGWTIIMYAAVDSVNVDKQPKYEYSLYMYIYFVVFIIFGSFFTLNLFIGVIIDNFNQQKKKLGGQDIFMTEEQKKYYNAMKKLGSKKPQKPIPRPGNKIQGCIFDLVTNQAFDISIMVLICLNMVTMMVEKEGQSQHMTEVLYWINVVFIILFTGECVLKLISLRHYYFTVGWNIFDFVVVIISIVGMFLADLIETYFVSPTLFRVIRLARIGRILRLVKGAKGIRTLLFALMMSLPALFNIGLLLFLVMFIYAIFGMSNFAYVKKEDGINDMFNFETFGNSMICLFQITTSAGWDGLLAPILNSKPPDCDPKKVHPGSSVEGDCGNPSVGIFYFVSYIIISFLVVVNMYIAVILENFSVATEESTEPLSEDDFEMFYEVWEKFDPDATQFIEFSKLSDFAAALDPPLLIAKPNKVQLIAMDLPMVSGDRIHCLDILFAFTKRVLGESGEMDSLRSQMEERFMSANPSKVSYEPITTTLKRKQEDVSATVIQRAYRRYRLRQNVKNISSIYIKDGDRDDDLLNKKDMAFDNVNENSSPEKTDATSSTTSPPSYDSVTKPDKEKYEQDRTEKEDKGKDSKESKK

Molecule `CN(C)[C@@H]1Cc2ccccc2C[C@H]1Nc1cc(F)c(S(=O)(=O)Nc2nccs2)cc1Cl` [Example 164, 5-Chloro-4-(((2R,3R)-3-(dimethylamino)-1,2,3,4-tetrahydronaphthalen-2-yl)amino)-2-fluoro-N-(thiazol-2-yl)benzenesulfonamide] has a pIC50 (hNav1.7 [1]) of 7.27 and a pIC50 (hNav1.7 [2]) of 8.13.
With `CN(C)[C@H]1CC=C(C(F)(F)F)C[C@@H]1Nc1cc(F)c(S(=O)(=O)Nc2nccs2)cc1Cl` [Example 130, 5-chloro-4-(((1S,6S)-6-(dimethylamino)-3-(trifluoromethyl)cyclohex-3-en-1-yl)amino)-2-fluoro-N-(thiazol-2-yl)benzenesulfonamide] the pIC50 (hNav1.7 [1]) was 7.12 and the pIC50 (hNav1.7 [2]) was 8.00.
`O=S(=O)(Nc1ccncn1)c1cc(Cl)c(N[C@H]2CCCC[C@@H]2N2CC3C(C2)C3(F)F)cc1F` (stereo partly drawn) [Example 183, 5-chloro-4-(((1S,2S)-2-(6,6-difluoro-3-azabicyclo[3.1.0]hexan-3-yl)cyclohexyl)amino)-2-fluoro-N-(pyrimidin-4-yl)benzenesulfonamide] showed a pIC50 (hNav1.7 [1]) of 6.56 and a pIC50 (hNav1.7 [2]) of 7.92.
For `Cc1csc(NS(=O)(=O)c2cc(Cl)c(N[C@H]3CC[C@H](C(F)(F)F)C[C@@H]3N(C)C)cc2F)n1` [Example 171, 5-chloro-4-(((1S,2S,4S)-2-(dimethylamino)-4-(trifluoromethyl)cyclohexyl)amino)-2-fluoro-N-(4-methylthiazol-2-yl)benzenesulfonamide formate], the pIC50 (hNav1.7 [1]) was 6.59 and the pIC50 (hNav1.7 [2]) was 7.91.
With `CN(CC(O)CF)[C@H]1CCCC[C@@H]1Nc1cc(F)c(S(=O)(=O)Nc2nccs2)cc1Cl` (single isomer, unassigned) [Example 119] the pIC50 (hNav1.7 [1]) was 6.74 and the pIC50 (hNav1.7 [2]) was 7.97.
`CN(C)[C@H]1CC=CC[C@@H]1Nc1cc(F)c(S(=O)(=O)Nc2nccs2)cc1Cl` [Example 141, 5-Chloro-4-(((1S,6S)-6-(dimethylamino)cyclohex-3-en-1-yl)amino)-2-fluoro-N-(thiazol-2-yl)benzenesulfonamide formate] was tested, and the pIC50 (hNav1.7 [1]) was 6.56 and the pIC50 (hNav1.7 [2]) was 7.90.
`O=S(=O)(Nc1cccc(F)n1)c1cc(Cl)c(N[C@H]2CCCC[C@@H]2N2CC3CC3C2)cc1F` (stereo partly drawn) [Example 105, 4-(((1S,2S)-2-(3-azabicyclo[3.1.0]hexan-3-yl)cyclohexyl)amino)-5-chloro-2-fluoro-N-(6-fluoropyridin-2-yl)benzenesulfonamide] showed a pIC50 (hNav1.7 [1]) of 7.50 and a pIC50 (hNav1.7 [2]) of 8.35.
Work on `CCN(C)[C@H]1CCCC[C@@H]1N1CCOc2cc(S(=O)(=O)Nc3nccs3)c(F)cc21` (racemic) [Example 189, 4-((trans)-2-(ethyl(methyl)amino)cyclohexyl)-6-fluoro-N-(thiazol-2-yl)-3,4-dihydro-2H-benzo[b][1,4]oxazine-7-sulfonamide] yielded a pIC50 (hNav1.7 [1]) of 6.52 and a pIC50 (hNav1.7 [2]) of 7.63.
`CN[C@H]1C[C@@H](c2cccc(C(F)(F)F)c2)CC[C@@H]1Nc1cc(F)c(S(=O)(=O)Nc2ccncn2)cc1Cl` [Example 226, 5-Chloro-2-fluoro-4-(((1S,2S,4S)-2-(methylamino)-4-(3-(trifluoromethyl)phenyl)cyclohexyl)amino)-N-(pyrimidin-4-yl)benzenesulfonamide] gave a pIC50 (hNav1.7 [1]) of 8.84 and a pIC50 (hNav1.7 [2]) of 8.98.
With `CC(C)CC(=O)N1CC(N(C)[C@H]2CCCC[C@@H]2Nc2cc(F)c(S(=O)(=O)Nc3nccs3)cc2Cl)C1` [Example 147, 5-Chloro-2-fluoro-4-(((1S,2S)-2-(methyl(1-(3-methylbutanoyl)azetidin-3-yl)amino)cyclohexyl)amino)-N-(thiazol-2-yl)benzenesulfonamide] the pIC50 (hNav1.7 [1]) was 6.56 and the pIC50 (hNav1.7 [2]) was 7.57.
For `CN(CCO)[C@H]1C[C@@H](C(F)(F)F)CC[C@@H]1Nc1cc(F)c(S(=O)(=O)Nc2nccs2)cc1Cl` [Example 138, 5-chloro-2-fluoro-4-(((1S,2S,4S)-2-((2-hydroxyethyl)(methyl)amino)-4-(trifluoromethyl)cyclohexyl)amino)-N-(thiazol-2-yl)benzenesulfonamide], the pIC50 (hNav1.7 [1]) was 8.03 and the pIC50 (hNav1.7 [2]) was 8.49.
In the case of `CN(C)[C@H]1C[C@H](F)CC[C@@H]1Nc1cc(F)c(S(=O)(=O)Nc2nccs2)cc1Cl` [Example 193, 5-chloro-4-(((1S,2S,4R)-2-(dimethylamino)-4-fluorocyclohexyl)amino)-2-fluoro-N-(thiazol-2-yl)benzenesulfonamide], the pIC50 (hNav1.7 [1]) was 6.04 and the pIC50 (hNav1.7 [2]) was 7.40.
Molecule `CN(C)[C@H]1C[C@@H](c2cccc(C(F)(F)F)c2)CC[C@@H]1Nc1ccc(S(=O)(=O)Nc2ccncn2)c(F)c1` [Example 237, 4-(((1S,2S,4S)-2-(Dimethylamino)-4-(3-(trifluoromethyl)phenyl)cyclohexyl)amino)-2-fluoro-N-(pyrimidin-4-yl)benzenesulfonamide formate] has a pIC50 (hNav1.7 [1]) of 8.61 and a pIC50 (hNav1.7 [2]) of 8.97.
`O=S(=O)(Nc1ccncn1)c1cc(Cl)c(N[C@H]2CC[C@H](C(F)(F)F)C[C@@H]2N2CCCCC2)cc1F` [Example 206, 5-chloro-2-fluoro-4-(((1S,2S,4S)-2-(piperidin-1-yl)-4-(trifluoromethyl)cyclohexyl)amino)-N-(pyrimidin-4-yl)benzenesulfonamide] was tested, and the pIC50 (hNav1.7 [1]) was 7.39 and the pIC50 (hNav1.7 [2]) was 8.06.
`CN(C)[C@H]1C[C@@H](F)CC[C@@H]1Nc1cc(F)c(S(=O)(=O)Nc2nccs2)cc1Cl` [Example 192, 5-chloro-4-(((1S,2S,4S)-2-(dimethylamino)-4-fluorocyclohexyl)amino)-2-fluoro-N-(thiazol-2-yl)benzenesulfonamide] showed a pIC50 (hNav1.7 [1]) of 6.49 and a pIC50 (hNav1.7 [2]) of 7.59.
With `CN([C@H]1C[C@H](O)C1)[C@H]1CCCC[C@@H]1Nc1cc(F)c(S(=O)(=O)Nc2nccs2)cc1Cl` [Example 157, 5-Chloro-2-fluoro-4-(((1S,2S)-2-((trans-3-hydroxycyclobutyl)(methyl)amino)cyclohexyl)amino)-N-(thiazol-2-yl)benzenesulfonamide formate] the pIC50 (hNav1.7 [1]) was 6.47 and the pIC50 (hNav1.7 [2]) was 7.62.
`CN(C[C@H](O)C1CC1)[C@H]1CCCC[C@@H]1Nc1cc(F)c(S(=O)(=O)Nc2nccs2)cc1Cl` [Example 143, 5-Chloro-4-(((1S,2S)-2-(((R)-2-cyclopropyl-2-hydroxyethyl)(methyl)amino)cyclohexyl)amino)-2-fluoro-N-(thiazol-2-yl)benzenesulfonamide] showed a pIC50 (hNav1.7 [1]) of 6.38 and a pIC50 (hNav1.7 [2]) of 7.71.
In the case of `CN(C)[C@H]1C[C@@H](C(F)(F)F)CC[C@@H]1Nc1cc(F)c(S(=O)(=O)Nc2ccncn2)cc1C1CC1` [Example 178, 5-cyclopropyl-4-(((1S,2S,4S)-2-(dimethylamino)-4-(trifluoromethyl)cyclohexyl)amino)-2-fluoro-N-(pyrimidin-4-yl)benzenesulfonamide], the pIC50 (hNav1.7 [1]) was 6.69 and the pIC50 (hNav1.7 [2]) was 7.72.
Work on `CN(C)[C@H]1CCC(c2cccc(C(F)(F)F)c2)C[C@@H]1Nc1cc(F)c(S(=O)(=O)Nc2ccncn2)cc1Cl` (stereo in doubt) [Example 120, 5-chloro-4-(((1S,2S,5R)-2-(dimethylamino)-5-(3-(trifluoromethyl)phenyl)cyclohexyl)amino)-2-fluoro-N-(pyrimidin-4-yl)benzenesulfonamide] yielded a pIC50 (hNav1.7 [1]) of 7.58 and a pIC50 (hNav1.7 [2]) of 8.39.
For `CN(C)[C@@H]1CC(F)(F)CC[C@H]1Nc1cc(F)c(S(=O)(=O)Nc2nccs2)cc1Cl` [Example 188, 5-chloro-4-(((1R,2R)-2-(dimethylamino)-4,4-difluorocyclohexyl)amino)-2-fluoro-N-(thiazol-2-yl)benzenesulfonamide formate], the pIC50 (hNav1.7 [1]) was 5.70 and the pIC50 (hNav1.7 [2]) was 6.16.
For `CN(C)[C@H]1CCCC[C@@H]1N1CCOc2cc(S(=O)(=O)Nc3nccs3)c(F)cc21` [Example 132, 4-((1 S,2S)-2-(dimethylamino)cyclohexyl)-6-fluoro-N-(thiazol-2-yl)-3,4-dihydro-2H-benzo[b][1,4]oxazine-7-sulfonamide], the pIC50 (hNav1.7 [1]) was 6.51 and the pIC50 (hNav1.7 [2]) was 7.85.
In the case of `CN(C)[C@H]1C[C@@H](c2cccc(C3CC3)c2)CC[C@@H]1Nc1cc(F)c(S(=O)(=O)Nc2ccncn2)cc1Cl` [Example 219, 5-chloro-4-(((1S,2S,4S)-4-(3-cyclopropylphenyl)-2-(dimethyamino)cyclohexyl)amino)-2-fluoro-N-(pyrimidin-4-yl)benzenesulfonamide], the pIC50 (hNav1.7 [1]) was 8.77 and the pIC50 (hNav1.7 [2]) was 9.03.
In the case of `CN(C[C@@H](O)C1CC1)[C@H]1CCCC[C@@H]1Nc1cc(F)c(S(=O)(=O)Nc2nccs2)cc1Cl` [Example 139, 5-Chloro-4-(((1S,2S)-2-(((S)-2-cyclopropyl-2-hydroxyethyl)(methyl)amino)cyclohexyl)amino)-2-fluoro-N-(thiazol-2-yl)benzenesulfonamide], the pIC50 (hNav1.7 [1]) was 6.54 and the pIC50 (hNav1.7 [2]) was 7.34.
With `O=S(=O)(Nc1cccc(F)n1)c1cc(Cl)c(N[C@@H]2CCCC[C@H]2N2CCCCC2)cc1F` [Example 117, 5-chloro-2-fluoro-N-(6-fluoropyridin-2-yl)-4-(((1R,2R)-2-(piperidin-1-yl)cyclohexyl)amino)benzenesulfonamide] the pIC50 (hNav1.7 [1]) was 5.65 and the pIC50 (hNav1.7 [2]) was 6.01.
